According to patent publication US9603899B2, “PDGF induced cell homing” (The Trustees of Columbia University in the City of New York, priority 2010, dated 2017):
“Also recorded” adds a separate entry of the source.

Key:
[1] = system: alveolar stem/progenitor cells; conditions: 15 μM; chemically defined medium, calcein AM label
[2] = system: alveolar stem/progenitor cells; experiment: Transwell migration assay; format: cell-based, human; conditions: for migration / recruitment of alveolar stem/progenitor cells: negative control serum-free medium, positive control DMEM with 15% FBS
Experimental: Transwell migration assay was performed to determine PDGF's ability to recruit alveolar stem/progenitor cells in a dose-response manner.

Molecule	capillary tubular formation [1]	migration / recruitment of alveolar stem/progenitor cells ([2]; Transwell migration)	chemoattractant efficacy compared among PDGF isoforms ([2]; Transwell migration, compared with other PDGF isoforms and positive control 15% FBS)	PDGF concentration at which highest cell migration was observed ([2]; tested at 10 ng/ml, 25 ng/ml and 50 ng/ml)
C[S+]([O-])CCCCN=C=S (stereo not shown) [sulforaphane]	blocked	–	–	–
PDGF-AA: PDGF isoform composed of two A chains	–	resulted in cell migration	–	–
PDGF-AB: PDGF isoform composed of one A and one B chain	–	resulted in cell migration	–	–
PDGF-BB: PDGF isoform composed of two B chains	–	induces robust, dose-dependent migration; also recorded: resulted in cell migration	most potent chemoattractant among all PDGF isoforms; also recorded: most robust efficacy, which was equal to positive control group with 15% fetal bovine serum; also recorded: higher rates of cell migration	–
platelet-derived growth factor [PDGF]	–	induces robust, dose-dependent migration; also recorded: cell migration was shown; also recorded: induced dose-dependent migration	–	50 ng/mL
